# Laboratory results taken from patent publication US6551602B1, “Skin care composition containing conjugated linoleic acid and a phenolic compound” (Conopco, Inc., priority 1999, dated 2003).
# Legend:
# Type in all cases: cell-based
# [1] = tested on: PGE2 production by human skin fibroblasts; experiment: Fibroblast PGE2 assay (PMA-induced); conditions: PMA 10 nM
# Method: Fibroblasts PGE2 and ICAM Assay
# Intracellular adhesion molecules (ICAM) and PEG2 production by human skin fibroblasts can be induced by the inflammatory stimulus PMA (phorbal myristate acetate). PMA represents an external stressor which induces oxidative stress and inflammatory responses in cells. This model is used to model inflammation in vivo.
# (§1) Primary human foreskin fibroblasts at passage 2 (P2) were seeded into 96-well plates at 10000 cells/well and maintained for 24 hours in an atmosphere of 5% carbon dioxide in Dulbeccos Modified Eagles Medium (DMEM) supplemented with 10% foetal calf serum. The test substances as indicated in the table 7 below were added to fresh cell media (DMEM, supplemented with 10% foetal calf serum) in dimethylsulphoxide and ethanol final concentration<1%) in triplicate and incubated for a further 24 hours. Phorbal myristate acetate (PMA) (Sigma) was added 10 nM to the media and the cells incubated for a further 24 hours. […] The fibroblasts/media were then analysed as described below immediately or snap frozen in liquid nitrogen and stored at −70° C. for future analysis. The cells were then counted and data from the dot-blot analysis subsequently standardised to cell number.
# Prostaglandin E2 (PGE2) Assay
# Volumes of 50 μl culture medium were taken for PGE2 assay after gently shaking the culture plate. PGE2 levels in the medium were determined with a Biotrak PGE2 immunoassay kit (Amersham, UK). The assay is based on the competition between unlabelled PGE2 in the sample and a fixed quantity of horseradish peroxidase labelled PGE2 for a limited amount of fixed PGE2 specific antibody. Concentrations of unlabelled sample PGE2 are determined according to a standard curve which was obtained at the same time.
# [2] = tested on: decorin synthesis in human dermal fibroblasts; experiment: Dot blot assay for decorin protein in dermal fibroblast conditioned medium; conditions: 24 h, relative to vehicle treated control = 100 arbitrary units
# Method: Procedure for Measuring Procollagen-I and Decorin Synthesis in Human Dermal Fibroblasts
# Preparation of Dermal Fibroblast Conditioned Medium
# Primary human foreskin fibroblasts at passage 2 (P2) were seeded into 12-well plates at 10000 cells/cm^2 and maintained for 24 hours in an atmosphere of 5% carbon dioxide and 4% oxygen in Dulbeccos Modified Eagles Medium (DMEM) supplemented with 10% foetal calf serum. After this time the cells were washed with serum free DMEM and then incubated in fresh serum free DMEM for a further 60 hours.
# The fibroblast monolayers were then washed again with serum free DMEM. […] This fibroblast conditioned medium was either analysed immediately or snap frozen in liquid nitrogen and stored at −70° C. for future analysis. The cells were then counted and data from the dot-blot analysis subsequently standardised to cell number. […]
# Membranes prepared for decorin analysis were blocked with 3% (w/v) BSA/0.1% (v/v) Tween 20 in PBS, whilst those for procollagen-I analysis were blocked with 5% (w/v) non fat dried milk powder/0.05% Tween 20 in PBS. […] Dot intensity was assessed by computer-assisted image analysis using the quantification tools in ImageQuant™, standardised to cell number and the effects of various test reagents on decorin and procollagen-I synthesis were determined relative to a vehicle treated control value of 100 arbitrary units. […]
# [3] = tested on: ICAM production by human skin fibroblasts; experiment: Fibroblast ICAM-1 assay (PMA-induced); conditions: PMA 10 nM
# Method: as §1, with “Fibroblasts PGE2 and ICAM Assay Intracellular adhesion molecules (ICAM) and PEG2 production by human skin fibroblasts can be induced by the inflammatory stimulus PMA (phorbal myristate acetate). PMA represents an external stressor which induces oxidative stress and inflammatory responses in cells. This model is used to model inflammation in vivo. Primary” for “Primary”, “hours.” for “hours. Phorbal myristate acetate (PMA) (Sigma) was added 10 nM to the media and the cells incubated for a further 24 hours.”, “number. […] The soluble ICAM-1 was assessed with commercially available immunoenzymometric assay kit (R&D Systems). Concentrations of ICAM-1 in the samples were determined based on parallel running standard curve.” for “number.”
compound,measurement,setting,value
O=c1c(-c2ccc(O)cc2)coc2cc(O)cc(O)c12 [genistein],inhibition at 5 µM,"[1]; Homo sapiens, Skin fibroblast, genistein 5 μM, read-out: % of Inhibition of Fibroblast PGE2 Levels",52%
"O=C(O[C@@H]1Cc2c(O)cc(O)cc2O[C@@H]1c1cc(O)c(O)c(O)c1)c1cc(O)c(O)c(O)c1 [EGCG, epigallocatechin gallate]",Decorin,[2]; 0.5 μg/ml EGCG,−99.6%
same,% of inhibition of fibroblast ICAM production,[3]; EGCG 5 μM,4.5%
same,% of Inhibition of Fibroblast PGE2 Levels,[1]; EGCG 5 μM,35.6%
conjugated linoleic acid [CLA],Decorin,[2]; 0.1 μM CLA,68.29%
same,% of inhibition of fibroblast ICAM production,[3]; CLA 1 μM,27.7%
same,% of Inhibition of Fibroblast PGE2 Levels,[1]; CLA 0.1 μM,16.9%
same,% of Inhibition of Fibroblast PGE2 Levels,[1]; CLA 5 μM,14.5%
